ChEMBL document CHEMBL1201862, “PubChem BioAssay data set” (2004)
Values belong to the compound of their own block, whether it stands above or below them. Activity calls are given as the source filed them.

Tests used:
[1] = molecular target: T1, Runt-related transcription factor 1/Core-binding factor subunit beta (Homo sapiens, UniProt Q01196+Q13951); test: inhibitors of RUNX1 Runt–CBFb-SMMHC binding, primary screen, biochemical, FRET, Cerulean-Runt, Venus-CBFb-SMMHC, uHTS (AID 1434); type: protein assay;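 further: partner is the CBFb-SMMHC leukemia fusion protein rather than wild-type CBFb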
T1 sequence (Q01196 whole entry, the tested form may be a part): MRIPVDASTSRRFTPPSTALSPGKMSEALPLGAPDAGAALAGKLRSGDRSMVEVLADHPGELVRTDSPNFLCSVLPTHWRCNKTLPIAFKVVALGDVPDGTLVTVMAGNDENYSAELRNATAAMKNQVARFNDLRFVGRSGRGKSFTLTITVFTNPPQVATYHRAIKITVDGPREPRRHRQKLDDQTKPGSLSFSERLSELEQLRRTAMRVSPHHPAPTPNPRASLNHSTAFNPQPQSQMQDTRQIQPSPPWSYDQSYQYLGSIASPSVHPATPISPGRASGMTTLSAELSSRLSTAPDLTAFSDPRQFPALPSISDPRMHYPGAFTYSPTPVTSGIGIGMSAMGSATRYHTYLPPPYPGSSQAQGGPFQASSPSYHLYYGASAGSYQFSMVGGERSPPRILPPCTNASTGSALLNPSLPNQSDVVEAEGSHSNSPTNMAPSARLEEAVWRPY
T1 sequence (Q13951 whole entry, the tested form may be a part): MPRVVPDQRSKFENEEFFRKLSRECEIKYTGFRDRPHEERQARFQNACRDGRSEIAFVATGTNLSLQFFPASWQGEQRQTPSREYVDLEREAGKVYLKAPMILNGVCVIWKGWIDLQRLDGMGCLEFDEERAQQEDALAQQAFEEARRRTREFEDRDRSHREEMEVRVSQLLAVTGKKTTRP

[2] = molecular target: T2, Voltage-gated N-type calcium channel alpha-1B subunit/Amyloid beta A4 precursor protein-binding family A member 1 (Homo sapiens, UniProt Q00975+Q02410); type: protein assay
T2 sequence (Q00975 whole entry): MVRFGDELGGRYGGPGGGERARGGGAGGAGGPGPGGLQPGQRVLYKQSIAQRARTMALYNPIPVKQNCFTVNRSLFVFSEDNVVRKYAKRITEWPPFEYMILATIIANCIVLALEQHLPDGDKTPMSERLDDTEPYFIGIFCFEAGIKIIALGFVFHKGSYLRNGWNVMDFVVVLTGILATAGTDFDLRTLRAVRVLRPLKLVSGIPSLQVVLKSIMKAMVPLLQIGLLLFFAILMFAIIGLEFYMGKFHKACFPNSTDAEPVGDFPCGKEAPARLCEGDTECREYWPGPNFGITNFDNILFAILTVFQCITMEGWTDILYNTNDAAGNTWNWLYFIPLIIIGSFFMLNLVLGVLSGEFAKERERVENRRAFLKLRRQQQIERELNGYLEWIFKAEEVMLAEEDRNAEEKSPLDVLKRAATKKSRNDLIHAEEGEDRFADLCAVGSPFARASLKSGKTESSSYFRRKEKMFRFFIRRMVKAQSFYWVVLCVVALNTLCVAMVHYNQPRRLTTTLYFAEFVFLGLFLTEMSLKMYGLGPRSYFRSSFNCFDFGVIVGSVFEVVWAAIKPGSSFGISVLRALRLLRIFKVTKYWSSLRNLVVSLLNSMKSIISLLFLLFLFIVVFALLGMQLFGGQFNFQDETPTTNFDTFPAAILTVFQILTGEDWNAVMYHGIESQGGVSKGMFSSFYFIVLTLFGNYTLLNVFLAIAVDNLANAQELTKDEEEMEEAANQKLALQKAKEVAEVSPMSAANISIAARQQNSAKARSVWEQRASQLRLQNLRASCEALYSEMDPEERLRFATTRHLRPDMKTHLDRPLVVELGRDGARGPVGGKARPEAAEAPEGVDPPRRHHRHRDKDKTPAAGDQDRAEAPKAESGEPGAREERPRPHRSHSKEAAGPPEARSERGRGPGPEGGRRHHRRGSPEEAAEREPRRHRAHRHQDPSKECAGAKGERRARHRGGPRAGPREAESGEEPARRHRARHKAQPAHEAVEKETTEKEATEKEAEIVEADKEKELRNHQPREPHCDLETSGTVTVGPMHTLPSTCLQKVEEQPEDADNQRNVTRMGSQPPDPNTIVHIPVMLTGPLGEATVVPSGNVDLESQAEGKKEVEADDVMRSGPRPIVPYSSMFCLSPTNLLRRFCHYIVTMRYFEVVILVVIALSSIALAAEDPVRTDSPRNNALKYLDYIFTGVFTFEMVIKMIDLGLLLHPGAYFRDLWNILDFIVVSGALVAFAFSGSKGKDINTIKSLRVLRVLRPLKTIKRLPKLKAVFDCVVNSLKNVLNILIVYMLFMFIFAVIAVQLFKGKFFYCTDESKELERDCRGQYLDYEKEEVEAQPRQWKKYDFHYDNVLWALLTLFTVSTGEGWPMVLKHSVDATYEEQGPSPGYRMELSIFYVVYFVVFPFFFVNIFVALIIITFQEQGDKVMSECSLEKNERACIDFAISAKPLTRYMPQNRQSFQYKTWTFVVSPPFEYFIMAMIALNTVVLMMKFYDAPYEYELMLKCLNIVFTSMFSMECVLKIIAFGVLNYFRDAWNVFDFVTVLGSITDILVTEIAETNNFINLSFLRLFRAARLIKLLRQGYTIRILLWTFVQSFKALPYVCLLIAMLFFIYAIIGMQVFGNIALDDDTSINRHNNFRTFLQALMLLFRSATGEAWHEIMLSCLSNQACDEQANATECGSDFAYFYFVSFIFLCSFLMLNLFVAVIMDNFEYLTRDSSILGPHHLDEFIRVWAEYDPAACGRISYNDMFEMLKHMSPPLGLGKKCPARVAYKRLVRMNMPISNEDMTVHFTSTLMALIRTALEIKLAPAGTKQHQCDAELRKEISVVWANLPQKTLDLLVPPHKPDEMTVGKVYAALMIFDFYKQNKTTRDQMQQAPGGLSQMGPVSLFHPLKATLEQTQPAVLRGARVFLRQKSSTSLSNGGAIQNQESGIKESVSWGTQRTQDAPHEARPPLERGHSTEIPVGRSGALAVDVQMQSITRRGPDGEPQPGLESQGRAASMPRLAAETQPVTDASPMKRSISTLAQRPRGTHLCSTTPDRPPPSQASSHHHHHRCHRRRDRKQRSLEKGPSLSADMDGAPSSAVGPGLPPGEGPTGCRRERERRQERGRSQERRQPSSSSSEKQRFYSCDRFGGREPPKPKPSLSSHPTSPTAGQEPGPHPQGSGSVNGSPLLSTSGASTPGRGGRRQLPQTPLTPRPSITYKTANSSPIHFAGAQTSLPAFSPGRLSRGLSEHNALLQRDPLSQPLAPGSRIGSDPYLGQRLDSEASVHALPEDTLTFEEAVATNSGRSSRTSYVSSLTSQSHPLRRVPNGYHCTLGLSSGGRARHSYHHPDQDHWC
T2 sequence (Q02410 whole entry): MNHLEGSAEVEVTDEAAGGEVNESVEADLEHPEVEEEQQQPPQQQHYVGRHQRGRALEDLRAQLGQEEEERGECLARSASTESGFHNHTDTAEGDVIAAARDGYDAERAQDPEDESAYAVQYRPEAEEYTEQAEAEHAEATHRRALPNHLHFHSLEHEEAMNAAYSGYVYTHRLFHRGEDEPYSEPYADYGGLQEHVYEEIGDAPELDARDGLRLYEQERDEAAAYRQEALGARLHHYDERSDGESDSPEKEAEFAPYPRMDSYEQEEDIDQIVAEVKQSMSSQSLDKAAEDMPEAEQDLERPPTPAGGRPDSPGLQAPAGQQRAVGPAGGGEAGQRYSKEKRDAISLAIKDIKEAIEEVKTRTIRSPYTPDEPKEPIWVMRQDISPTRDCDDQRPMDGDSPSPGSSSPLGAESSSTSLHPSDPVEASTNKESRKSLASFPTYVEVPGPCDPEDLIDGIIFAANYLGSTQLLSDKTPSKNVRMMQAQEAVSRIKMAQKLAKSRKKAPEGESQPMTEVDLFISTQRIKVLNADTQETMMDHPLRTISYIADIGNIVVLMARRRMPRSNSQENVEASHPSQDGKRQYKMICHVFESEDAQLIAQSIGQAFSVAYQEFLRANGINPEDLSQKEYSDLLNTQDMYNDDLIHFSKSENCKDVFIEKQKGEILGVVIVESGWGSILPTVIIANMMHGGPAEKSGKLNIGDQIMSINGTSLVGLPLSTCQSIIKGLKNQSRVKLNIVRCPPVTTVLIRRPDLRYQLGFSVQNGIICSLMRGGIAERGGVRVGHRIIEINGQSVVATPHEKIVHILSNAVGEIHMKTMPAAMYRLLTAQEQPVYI

[3] = molecular target: T1, Runt-related transcription factor 1/Core-binding factor subunit beta; test: inhibitors of RUNX1 Runt–CBFb-SMMHC binding, biochemical, TR-FRET (AID 1438); type: protein assay
[4] = molecular target: T2, Voltage-gated N-type calcium channel alpha-1B subunit/Amyloid beta A4 precursor protein-binding family A member 1; type: protein assay; remark: listed apart in the source
[5] = molecular target: Induced myeloid leukemia cell differentiation protein Mcl-1 (Homo sapiens, UniProt Q07820); type: functional
Chain of Induced myeloid leukemia cell differentiation protein Mcl-1 (Q07820 whole entry): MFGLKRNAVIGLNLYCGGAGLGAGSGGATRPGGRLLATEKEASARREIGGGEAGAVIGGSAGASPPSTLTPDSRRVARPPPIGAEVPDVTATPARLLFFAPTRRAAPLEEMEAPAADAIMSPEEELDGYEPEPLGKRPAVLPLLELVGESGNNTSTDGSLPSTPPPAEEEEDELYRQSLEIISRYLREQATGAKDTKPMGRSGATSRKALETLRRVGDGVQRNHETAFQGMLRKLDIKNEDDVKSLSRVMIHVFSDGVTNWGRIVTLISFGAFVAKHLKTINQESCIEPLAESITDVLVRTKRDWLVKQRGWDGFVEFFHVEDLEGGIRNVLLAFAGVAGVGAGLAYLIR

[6] = molecular target: T2, Voltage-gated N-type calcium channel alpha-1B subunit/Amyloid beta A4 precursor protein-binding family A member 1; test: disruptors of Mint-PDZ/N-type channel peptide interaction – biochemical, HTRF, set 2, SAR follow-up (AID 434980); type: functional
[7] = molecular target: T2, Voltage-gated N-type calcium channel alpha-1B subunit/Amyloid beta A4 precursor protein-binding family A member 1; test: disruptors of Mint-PDZ/N-type channel peptide interaction – biochemical, HTRF, SAR follow-up (AID 2489); type: functional
[8] = molecular target: 26S proteasome non-ATPase regulatory subunit 14 (Homo sapiens, UniProt O00487); test: inhibition of proteasome subunit RPN11 – biochemical, fluorescence polarization, uHTS hits, confirmation (AID 602368); type: functional
[9] = molecular target: 72 kDa type IV collagenase (Homo sapiens, UniProt P08253); test: Dose Response validation of uHTS RPN11 inhibitor hits using a MMP-2 Fluorescence assay.; type: functional
[10] = molecular target: Prothrombin (Bos taurus, UniProt P00735); test: thrombin inhibition, dose response, biochemical, fluorescence polarization, uHTS hits (AID 602369); type: functional
[11] = molecular target: T3, Probable nicotinate-nucleotide adenylyltransferase (Staphylococcus aureus (strain N315), UniProt P65502); type: functional, Staphylococcus aureus subsp. aureus N315;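 on IC50 Mean: confirmatory dose-response retesting of NadD inhibitor hits first found in an ultra-high-throughput screen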
[12] = molecular target: T3, Probable nicotinate-nucleotide adenylyltransferase; type: functional, Staphylococcus aureus subsp. aureus N315; conditions: read-out: IC50_Mean
[13] = molecular target: Melanin-concentrating hormone receptor 1 (Homo sapiens, UniProt Q99705); test: Late-stage fluorescence-based counterscreen for antagonists of the G-protein coupled receptor 7 (GPR7): cell-based dose response assay to identify antagonists of the melanin-concentrating hormone receptor 1 (MCHR1). [Related pubchem assays (depositor defined):AID1861, AID1880, AID1952, AID2148, AID2251, AID2257, AID485339]; type: functional;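 further: stimulated with 30 nM MCH peptide agonist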
[14] = molecular target: C-C chemokine receptor type 6 (Homo sapiens, UniProt P51684); test: CCR6 receptor antagonists, dose response, cell-based, luminescent beta-arrestin readout (AID 504728); type: functional
[15] = molecular target: Beta-galactosidase (Escherichia coli, UniProt Q8VNN2); test: beta-galactosidase enzyme inhibitors and activators, dose response, artefact control for CCR6 antagonist project, biochemical, E. coli enzyme, set 3 (AID 504712); type: functional
[16] = molecular target: T4, Short transient receptor potential channel 4 (Mus musculus, UniProt Q9QUQ5); test: mouse TRPC4 channel activators, dose response, cell-based, HEK293 TRPC4/mu-opioid, Fluo-4 calcium (AID 434937); type: functional
T4 sequence (Q9QUQ5 whole entry): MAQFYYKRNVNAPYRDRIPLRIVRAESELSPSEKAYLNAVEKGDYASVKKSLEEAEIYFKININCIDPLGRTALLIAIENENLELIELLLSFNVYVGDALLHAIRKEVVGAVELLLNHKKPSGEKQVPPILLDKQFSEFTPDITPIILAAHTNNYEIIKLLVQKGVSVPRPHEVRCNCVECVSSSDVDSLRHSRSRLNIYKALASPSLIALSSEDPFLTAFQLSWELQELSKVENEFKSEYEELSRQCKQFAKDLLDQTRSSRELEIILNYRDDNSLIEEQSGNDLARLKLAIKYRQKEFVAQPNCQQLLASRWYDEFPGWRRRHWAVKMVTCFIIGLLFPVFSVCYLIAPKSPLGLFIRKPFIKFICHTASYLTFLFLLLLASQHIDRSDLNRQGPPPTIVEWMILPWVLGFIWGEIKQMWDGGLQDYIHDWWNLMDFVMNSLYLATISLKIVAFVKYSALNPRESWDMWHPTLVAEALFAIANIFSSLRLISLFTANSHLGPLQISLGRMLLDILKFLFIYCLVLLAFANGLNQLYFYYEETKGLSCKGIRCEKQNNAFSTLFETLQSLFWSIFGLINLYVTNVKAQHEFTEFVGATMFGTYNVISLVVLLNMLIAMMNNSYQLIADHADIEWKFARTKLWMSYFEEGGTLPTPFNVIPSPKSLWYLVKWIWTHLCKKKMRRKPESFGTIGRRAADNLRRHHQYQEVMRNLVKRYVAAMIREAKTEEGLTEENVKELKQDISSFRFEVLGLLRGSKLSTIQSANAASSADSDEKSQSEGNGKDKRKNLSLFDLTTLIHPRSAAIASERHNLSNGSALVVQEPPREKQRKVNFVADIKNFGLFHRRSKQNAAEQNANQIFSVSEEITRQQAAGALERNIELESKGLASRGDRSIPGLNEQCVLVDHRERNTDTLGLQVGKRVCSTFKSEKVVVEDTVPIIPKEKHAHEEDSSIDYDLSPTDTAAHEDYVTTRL

[17] = molecular target: Acyl-homoserine lactone acylase PvdQ (Pseudomonas aeruginosa (strain LESB58), UniProt Q9I194); test: P. aeruginosa PvdQ acylase inhibitors, dose response, biochemical, fluorescence, plate reader and imaging, cherry-picks (AID 493231)
[18] = molecular target: G2/mitotic-specific cyclin-B1 (Homo sapiens, UniProt P14635); test: Counterscreen assay for inhibitors of Wee1 degradation: dose response cell-based assay to identify inhibitors of cyclin B degradation. [Related pubchem assays: 1410, 1321 ]; type: functional
[19] = system: BJ; test: cytotoxicity toward BJ-TERT fibroblasts, dose response, cell-based, RAS-independent, luminescence (AID 1933); type: functional; conditions: Homo sapiens
[20] = molecular target: Wee1-like protein kinase (Homo sapiens, UniProt P30291); test: Dose Response Cell-based Assay for Inhibitors of Wee1 Degradation. [Related pubchem assays: 1410, 1321 ]; type: functional
[21] = system: BJ; test: cells; type: functional, cell-based; conditions: Homo sapiens
[22] = system: BJ; test: cytotoxicity toward BJ-TERT-LT-ST fibroblasts, dose response, cell-based, RAS-independent, luminescence (AID 1935); type: functional; conditions: Homo sapiens;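 further: BJ fibroblasts immortalized with TERT plus LT and ST oncogenes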
[23] = cytotoxicity toward DRD oncogenic fibroblasts, dose response, cell-based, non-viral oncogenic, luminescence (AID 1934); type: functional; conditions: Homo sapiens
[24] = Luminescence Cell-Based Dose Retest to Confirm Inhibitors of Cancer Stem Cells. [Related pubchem assays (depositor defined):AID2717, AID2721]; type: functional; conditions: Homo sapiens
[25] = molecular target: Metabotropic glutamate receptor 4 (Homo sapiens, UniProt Q14833); test: Modulation of the Metabotropic Glutamate Receptor mGluR4: Potency at human mGluR4. Modulation of intracellular Ca2+ using Fluo-4, AM, in CHO expressing recombinant receptor [Related pubchem assays (depositor defined):AID2437, AID2807]; type: functional, cell-based
Chain of Metabotropic glutamate receptor 4 (Homo sapiens, UniProt Q14833) (Q14833 whole entry): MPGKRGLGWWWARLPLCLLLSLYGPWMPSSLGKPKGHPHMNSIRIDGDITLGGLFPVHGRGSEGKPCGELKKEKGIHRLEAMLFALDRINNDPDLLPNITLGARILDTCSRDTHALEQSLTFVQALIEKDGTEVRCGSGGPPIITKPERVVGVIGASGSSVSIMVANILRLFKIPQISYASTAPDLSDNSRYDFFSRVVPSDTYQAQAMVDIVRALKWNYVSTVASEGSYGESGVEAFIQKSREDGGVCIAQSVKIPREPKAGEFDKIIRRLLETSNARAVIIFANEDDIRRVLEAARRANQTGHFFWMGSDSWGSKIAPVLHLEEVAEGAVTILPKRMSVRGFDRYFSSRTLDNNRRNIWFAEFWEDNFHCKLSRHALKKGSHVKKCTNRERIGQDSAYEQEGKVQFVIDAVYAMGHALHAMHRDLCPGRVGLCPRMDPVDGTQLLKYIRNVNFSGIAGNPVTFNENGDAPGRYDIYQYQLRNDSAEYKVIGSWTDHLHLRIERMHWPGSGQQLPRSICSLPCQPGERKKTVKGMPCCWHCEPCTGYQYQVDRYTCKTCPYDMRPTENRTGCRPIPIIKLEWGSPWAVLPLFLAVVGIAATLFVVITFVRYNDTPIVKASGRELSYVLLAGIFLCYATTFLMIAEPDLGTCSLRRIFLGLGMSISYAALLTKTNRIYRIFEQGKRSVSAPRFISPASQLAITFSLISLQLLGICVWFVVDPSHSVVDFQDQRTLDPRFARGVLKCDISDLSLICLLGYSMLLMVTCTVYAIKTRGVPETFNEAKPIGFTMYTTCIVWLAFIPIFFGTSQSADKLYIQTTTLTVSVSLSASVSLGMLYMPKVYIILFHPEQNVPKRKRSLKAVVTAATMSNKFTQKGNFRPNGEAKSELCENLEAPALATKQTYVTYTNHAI

[26] = molecular target: Metabotropic glutamate receptor 4 (Rattus norvegicus, UniProt P31423); test: Modulation of the Metabotropic Glutamate Receptor mGluR4: Rat PAM Potency. [Related pubchem assays (depositor defined):AID2437, AID2807]; type: functional

Compound: CN(CCC#N)C(=O)COC(=O)c1c2c(nc3ccccc13)/C(=C/c1ccco1)CC2
IC50 [1]: 62.4 µM (inactive)
IC50 [2]: 6.34 µM (active)
IC50 [3]: > 100 µM (inactive)
IC50 [4]: 3.22 µM (active)
IC50 [5]: 1.44 µM (active)
IC50 [6]: 2.82 µM (active)
IC50 [7]: 6.19 µM (active)
IC50 [8]: 4.76 µM (active)
IC50 [9]: > 100 µM (inactive)
IC50 [10]: 6.71 µM (active)
IC50 [11]: 7.86 µM (active)
IC50 [12]: 16.9 µM (active)

Compound: N#CC(OC(=O)c1ccccc1)c1cccc([N+](=O)[O-])c1 (stereo unspecified)
AC50 [17]: 7.45 µM (active)

Compound: Cc1ccc(/C=N/NC(=O)c2ccc3c(c2)OCCO3)s1
EC50 [18]: > 49.7 µM (not active)
EC50 [19]: 12.4 µM (active)
EC50 [20]: > 49.7 µM (not active)
EC50 [21]: 140 µM (active)
EC50 [22]: > 150 µM (inconclusive)
EC50 [23]: 17.9 µM (active)
AC50 [24]: 1.48 µM (active)

Results, then the compound that gave them:

IC50 [13]: 2.6 µM (active)
Compound: COc1ccc(Oc2c(Cl)cnn(-c3cccc(C(F)(F)F)c3)c2=O)cc1

IC50 [14]: > 66.6 µM (inactive)
IC50 [15]: > 66.6 µM (inactive)
EC50 [16]: 2.11 µM (active)
Compound: CN(C)C(CNc1ccc(C(F)(F)F)cn1)c1ccccc1 (stereo unspecified)

EC50 [25]: 11.8 µM (active)
EC50 [26]: 11.1 µM (active)
Compound: O=C(Nc1ccc(Cl)c(Cl)c1)c1ccno1
